Legend:
Test in all cases: relative viability (nuclei count vs DMSO), 5 days (fraction); higher = more cells survive
[1] = compound: CCn1c(-c2nonc2N)nc2c(C#CC(C)(C)O)ncc(OC[C@H]3CCCNC3)c21 + N=C(N)NC(=N)NCCc1ccccc1 [Phenformin] (partner 250 µM)
How it was run: (§1)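 Values are medians from duplicate plates. Each reflects relative viability, defined as the nuclei count of treated wells over that of vehicle wells. Lung cancer cell lines in 1536-well plates were pin-tool dosed one day after seeding with one drug alone or with a fixed anchor-drug dose plus five library-drug doses (not always all listed) in √10 steps, then fixed, stained and imaged at 4× after 5 days.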

[2] = compound: CCn1c(-c2nonc2N)nc2c(C#CC(C)(C)O)ncc(OC[C@H]3CCCNC3)c21 + Nc1nc2[nH]cc(CCc3ccc(C(=O)N[C@@H](CCC(=O)O)C(=O)O)cc3)c2c(=O)[nH]1 [Pemetrexed] (partner 0.2 µM)
How it was run: as §1

BAM7 + OSI-027 = compound: CCOC1=CC=CC=C1N=NC2=C(NN(C2=O)C3=NC(=CS3)C4=CC=CC=C4)C [BAM7] + COc1cccc2cc(-c3nc([C@H]4CC[C@H](C(=O)O)CC4)n4ncnc(N)c34)[nH]c12 [OSI-027] (partner 0.5 µM)
How it was run: as §1

BAM7 + Crizotinib = compound: CCOC1=CC=CC=C1N=NC2=C(NN(C2=O)C3=NC(=CS3)C4=CC=CC=C4)C [BAM7] + C[C@@H](Oc1cc(-c2cnn(C3CCNCC3)c2)cnc1N)c1c(Cl)ccc(F)c1Cl [Crizotinib] (partner 1 µM)
How it was run: as §1

With UMC-11 the relative viability ([1]; first compound 0.01 µM) was 0.35, the relative viability ([1]; first compound 0.03162 µM) was 0.351 and the relative viability ([1]; first compound 0.1 µM) was 0.31. The relative viability ([1]; first compound 0.3162 µM) was 0.32, the relative viability ([1]; first compound 1 µM) was 0.301 and the relative viability ([2]; first compound 0.01 µM) was 0.804. The relative viability ([2]; first compound 0.03162 µM) was 0.758, the relative viability ([2]; first compound 0.1 µM) was 0.749 and the relative viability ([2]; first compound 0.3162 µM) was 0.722. For the same cell line, the relative viability ([2]; first compound 1 µM) was 0.758, the relative viability (BAM7 + OSI-027; first compound 0.5 µM) was 0.465 and the relative viability (BAM7 + OSI-027; first compound 5 µM) was 0.461. The relative viability (BAM7 + OSI-027; first compound 15.81 µM) was 0.461, the relative viability (BAM7 + OSI-027; first compound 50 µM) was 0.487 and the relative viability (BAM7 + Crizotinib; first compound 0.5 µM) was 0.661. The relative viability (BAM7 + Crizotinib; first compound 5 µM) was 0.786, the relative viability (BAM7 + Crizotinib; first compound 15.81 µM) was 0.624 and the relative viability (BAM7 + Crizotinib; first compound 50 µM) was 0.636.

From the supplement of paper PMC10307832
